Test results reported in patent publication US10294202B2, “Pyrrolidinones as herbicides” (FMC Corporation, priority 2013, dated 2019).

Key:
foxtail, green = test: Test E preemergence herbicide test; format: in vivo, Setaria viridis; set-up: key: 0 = no effect, 100 = complete control
Text: (§1) Seeds of plant species selected from corn (Zea mays), soybean (Glycine max), velvetleaf (Abutilon theophrasti), lambsquarters (Chenopodium album), wild poinsettia (Euphorbia heterophylla), pigweed, palmer (palmer pigweed, Amaranthus palmeri), waterhemp (common waterhemp, Amaranthus rudis), surinam grass (Brachiaria decumbens), crabgrass, large (large crabgrass, Digitaria sanguinalis), crabgrass, Brazil (Brazilian crabgrass, Digitaria horizontalis), panicum, fall (fall panicum, Panicum dichotomiflorum), foxtail, giant (giant foxtail, Setaria faberii), foxtail, green (green foxtail, Setaria viridis), goosegrass (Eleusine indica), johnsongrass (Sorghum halepense), ragweed (common ragweed, Ambrosia elatior), barnyardgrass (Echinochloa crus-galli), sandbur (southern sandbur, Cenchrus echinatus), arrowleaf […] rhombifolia), ryegrass, Italian (Italian ryegrass, Lolium multiflorum), dayflower, VA (Virginia dayflower, Commelina virginica), field bindweed (Convolvulus arvensis), morningglory (Ipomoea coccinea), nightshade (eastern black nightshade, Solanum ptycanthum), kochia (Kochia scoparia), nutsedge, yellow (yellow nutsedge, Cyperus esculentus), cocklebur (common cocklebur, Xanthium strumarium), smartweed (ladysthumb smartweed, Polygonum Persicaria) and beggarticks (hairy beggarticks, Bidens pilosa), were planted into a silt loam soil and treated preemergence with test chemicals formulated in a non-phytotoxic solvent mixture which included a surfactant. Treated plants and controls were maintained in a greenhouse for 21 days, after which time all species were compared to controls and visually evaluated. Plant response ratings, summarized in Table E, are based on a scale of 0 to 100 where 0 is no effect and 100 is complete control. A dash (-) response means no test result.

ragweed = test: Test E preemergence herbicide test; format: in vivo, Ambrosia elatior; set-up: key: 0 = no effect, 100 = complete control
Text: as §1

soybean = test: Test E preemergence herbicide test; format: in vivo, Glycine max; set-up: key: 0 = no effect, 100 = complete control
Text: as §1

barley, winter = test: Test D pre-/postemergence herbicide test; format: in vivo, Hordeum vulgare; settings: for Plant response rating, Barley, Winter: scale 0 to 100 (0 no effect, 100 complete control); for Plant response rating: Barley, Winter, scale 0 to 100
Text: (§2) Seeds of plant species selected from bluegrass (annual bluegrass, Poa annua), blackgrass (Alopecurus myosuroides), canarygrass (littleseed canarygrass, Phalaris minor), chickweed (common chickweed, Stellaria media), galium (catchweed bedstraw, Galium aparine), bromegrass, downy (downy bromegrass, Bromus tectorum), field poppy (Papaver rhoeas), field violet (Viola arvensis), foxtail, green (green foxtail, Setaria viridis), deadnettle (henbit deadnettle, Lamium amplexicaule), ryegrass, Italian (Italian ryegrass, Lolium multiflorum), kochia (Kochia scoparia), lambsquarters (Chenopodium album), oilseed rape (Brassica napus), pigweed (Amaranthus retroflexus), chamomile (scentless chamomile, Matricaria inodora), Russian thistle (Salsola kali), speedwell (bird's-eye speedwell, Veronica persica), barley, spring (spring barley, Hordeum vulgare), wheat, spring (spring wheat, Triticum aestivum), buckwheat, wild (wild buckwheat, Polygonum convolvulus), mustard, wild (wild mustard, Sinapis arvensis), oat, wild (wild oat, Avena fatua), radish, wild (wild radish, Raphanus raphanistrum), […]), barley, winter (winter barley, Hordeum vulgare), and wheat, winter (winter wheat, Triticum aestivum) were planted into a silt loam soil and treated preemergence with test chemicals formulated in a non-phytotoxic solvent mixture which included a surfactant. At the same time, these species were planted in pots containing Redi-Earth® planting medium (Scotts Company, 14111 Scottslawn Road, Marysville, Ohio 43041) comprising spaghnum peat moss, vermiculite, wetting agent and starter nutrients and treated with postemergence applications of the test chemicals formulated in the same manner. Plants ranged in height from 2 to 18 cm (1- to 4-leaf stage). Treated plants and controls were maintained in a controlled growth environment for 7 to 21 days after which time all species were compared to controls and visually evaluated. Plant response ratings, summarized in Table D, are based on a scale of 0 to 100 where 0 is no effect and 100 is complete control. A dash (-) response means no test result.

barley, spring = test: Test D pre-/postemergence herbicide test; format: in vivo, Hordeum vulgare; settings: for Plant response rating, Barley, Spring: scale 0 to 100 (0 no effect, 100 complete control); for Plant response rating: Barley, Spring, scale 0 to 100
Text: as §2

cupgrass, woolly = test: Test C pre-/postemergence herbicide test; format: in vivo, Eriochloa villosa; settings: Preemergence
Method in brief: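 Visual rating, 0 (no effect) to 100 (complete control), versus untreated controls after 13 to 15 days in the greenhouse. Pre: seeds in loam/sand, sprayed at planting. Post: 1- to 4-leaf plants (2 to 18 cm) in peat-based mix. Compounds in non-phytotoxic solvent plus surfactant.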

O=C1NCC(c2ccc(OC(F)F)cc2)C1C(=O)Nc1cccc(F)c1F (racemic) [Compound 350]
Plant response rating, Foxtail, Green (foxtail, green; 31 g ai/ha): 20
Plant response rating, Foxtail, Green (foxtail, green; 62 g ai/ha): 35
Plant response rating, Foxtail, Green (foxtail, green; 125 g ai/ha): 80
Plant response rating, Foxtail, Green (foxtail, green; 250 g ai/ha): 85
Plant response rating, Ragweed (ragweed; 31 g ai/ha): 0
Plant response rating, Ragweed (ragweed; 62 g ai/ha): 0
Plant response rating, Ragweed (ragweed; 125 g ai/ha): 60
Plant response rating, Ragweed (ragweed; 250 g ai/ha): 65
Plant response rating, Soybean (soybean; 31 g ai/ha): 0
Plant response rating, Soybean (soybean; 62 g ai/ha): 0
Plant response rating, Soybean (soybean; 125 g ai/ha): 0
Plant response rating, Soybean (soybean; 250 g ai/ha): 0

O=C1NC[C@H](c2cccc(C(F)(F)F)c2)[C@H]1C(=O)Nc1cccc(F)c1F [Compound 206]
Plant response rating, Foxtail, Green (foxtail, green; 31 g ai/ha): 80
Plant response rating, Foxtail, Green (foxtail, green; 62 g ai/ha): 98
Plant response rating, Foxtail, Green (foxtail, green; 125 g ai/ha): 98
Plant response rating, Foxtail, Green (foxtail, green; 250 g ai/ha): 98
Plant response rating, Ragweed (ragweed; 31 g ai/ha): 0
Plant response rating, Ragweed (ragweed; 62 g ai/ha): 0
Plant response rating, Ragweed (ragweed; 125 g ai/ha): 0
Plant response rating, Ragweed (ragweed; 250 g ai/ha): 75
Plant response rating, Barley, Winter (barley, winter; Preemergence, 62 g ai/ha): 30
Plant response rating, Barley, Winter (barley, winter; Preemergence, 125 g ai/ha): 40
Plant response rating, Barley, Winter (barley, winter; Preemergence, 31 g ai/ha): 15
Plant response rating (barley, winter; Preemergence, 250 g ai/ha): 65
Plant response rating, Barley, Spring (barley, spring; Preemergence, 62 g ai/ha): 35
Plant response rating, Barley, Spring (barley, spring; Preemergence, 125 g ai/ha): 40
Plant response rating, Barley, Spring (barley, spring; Preemergence, 31 g ai/ha): 5
Plant response rating (barley, spring; Preemergence, 250 g ai/ha): 55
Plant response rating, Soybean (soybean; 31 g ai/ha): 0
Plant response rating, Soybean (soybean; 62 g ai/ha): 0
Plant response rating, Soybean (soybean; 125 g ai/ha): 0
Plant response rating, Soybean (soybean; 250 g ai/ha): 0

O=C1NC[C@H](c2cccc(C(F)(F)F)c2)[C@H]1C(=O)Nc1ccccc1F [Compound 204, (3R,4S)—N-(2-fluorophenyl)-2-oxo-4-[3-(trifluoromethyl)phenyl]-3-pyrrolidinecarboxamide]
Plant response rating, Foxtail, Green (foxtail, green; 31 g ai/ha): 40
Plant response rating, Foxtail, Green (foxtail, green; 62 g ai/ha): 98
Plant response rating, Foxtail, Green (foxtail, green; 125 g ai/ha): 95
Plant response rating, Foxtail, Green (foxtail, green; 250 g ai/ha): 98
Plant response rating, Ragweed (ragweed; 31 g ai/ha): 0
Plant response rating, Ragweed (ragweed; 62 g ai/ha): 0
Plant response rating, Ragweed (ragweed; 125 g ai/ha): 0
Plant response rating, Ragweed (ragweed; 250 g ai/ha): 0
Plant response rating, Barley, Winter (barley, winter; Preemergence, 62 g ai/ha): 20
Plant response rating, Barley, Winter (barley, winter; Preemergence, 125 g ai/ha): 25
Plant response rating, Barley, Winter (barley, winter; Preemergence, 31 g ai/ha): 0
Plant response rating (barley, winter; Preemergence, 250 g ai/ha): 35
Plant response rating, Barley, Spring (barley, spring; Preemergence, 62 g ai/ha): 15
Plant response rating, Barley, Spring (barley, spring; Preemergence, 125 g ai/ha): 20
Plant response rating, Barley, Spring (barley, spring; Preemergence, 31 g ai/ha): 0
Plant response rating (barley, spring; Preemergence, 250 g ai/ha): 45
Plant response rating, Soybean (soybean; 31 g ai/ha): 0
Plant response rating, Soybean (soybean; 62 g ai/ha): 0
Plant response rating, Soybean (soybean; 125 g ai/ha): 0

O=C1NCC(c2ccc(C(F)(F)F)cc2)C1C(=O)Nc1cccc(F)c1F (stereo not drawn) [Compound 80, N-(2,3-difluorophenyl)-2-oxo-4-[4-(trifluoromethyl)phenyl]-3-pyrrolidinecarboxamide]
Plant response rating, Foxtail, Green (foxtail, green; 16 g ai/ha): 50
Plant response rating, Foxtail, Green (foxtail, green; 31 g ai/ha): 60
Plant response rating, Foxtail, Green (foxtail, green; 62 g ai/ha): 70
Plant response rating, Foxtail, Green (foxtail, green; 125 g ai/ha): 80
Plant response rating, Foxtail, Green (foxtail, green; 250 g ai/ha): 90
Plant response rating, Ragweed (ragweed; 16 g ai/ha): 0
Plant response rating, Ragweed (ragweed; 31 g ai/ha): 0
Plant response rating, Ragweed (ragweed; 62 g ai/ha): 0
Plant response rating, Ragweed (ragweed; 125 g ai/ha): 0
Plant response rating, Ragweed (ragweed; 250 g ai/ha): 20
Plant response rating (barley, winter; Postemergence, 31 g ai/ha): 0
Plant response rating (barley, winter; Postemergence, 62 g ai/ha): 0
Plant response rating (barley, winter; Postemergence, 125 g ai/ha): 0
Plant response rating (barley, winter; Postemergence, 250 g ai/ha): 0
Plant response rating, Barley, Winter (barley, winter; Preemergence, 62 g ai/ha): 5
Plant response rating, Barley, Winter (barley, winter; Preemergence, 31 g ai/ha): 0
Plant response rating (barley, winter; Preemergence, 125 g ai/ha): 15
Plant response rating (barley, winter; Preemergence, 250 g ai/ha): 25
Plant response rating (barley, spring; Postemergence, 31 g ai/ha): 0
Plant response rating (barley, spring; Postemergence, 62 g ai/ha): 0
Plant response rating (barley, spring; Postemergence, 125 g ai/ha): 0
Plant response rating (barley, spring; Postemergence, 250 g ai/ha): 0
Plant response rating, Barley, Spring (barley, spring; Preemergence, 62 g ai/ha): 10
Plant response rating, Barley, Spring (barley, spring; Preemergence, 31 g ai/ha): 0
Plant response rating (barley, spring; Preemergence, 125 g ai/ha): 15
Plant response rating (barley, spring; Preemergence, 250 g ai/ha): 30
Plant response rating, Soybean (soybean; 16 g ai/ha): 0
Plant response rating, Soybean (soybean; 31 g ai/ha): 0
Plant response rating, Soybean (soybean; 62 g ai/ha): 0
Plant response rating, Soybean (soybean; 125 g ai/ha): 0
Plant response rating, Soybean (soybean; 250 g ai/ha): 40

O=C1NCC(c2ccc(Cl)c(Cl)c2)C1C(=O)Nc1ccccc1F (racemic) [Compound 14]
Plant response rating, Foxtail, Green (foxtail, green; 16 g ai/ha): 0
Plant response rating, Foxtail, Green (foxtail, green; 31 g ai/ha): 0
Plant response rating, Foxtail, Green (foxtail, green; 62 g ai/ha): 0
Plant response rating, Foxtail, Green (foxtail, green; 125 g ai/ha): 10
Plant response rating, Foxtail, Green (foxtail, green; 250 g ai/ha): 70
Plant response rating, Ragweed (ragweed; 16 g ai/ha): 0
Plant response rating, Ragweed (ragweed; 31 g ai/ha): 0
Plant response rating, Ragweed (ragweed; 62 g ai/ha): 0
Plant response rating, Ragweed (ragweed; 125 g ai/ha): 0
Plant response rating, Ragweed (ragweed; 250 g ai/ha): 0
Plant response rating, Soybean (soybean; 16 g ai/ha): 0
Plant response rating, Soybean (soybean; 31 g ai/ha): 0
Plant response rating, Soybean (soybean; 62 g ai/ha): 0
Plant response rating, Soybean (soybean; 125 g ai/ha): 0
Plant response rating, Soybean (soybean; 250 g ai/ha): 0
Plant response rating, Cupgrass, Woolly (cupgrass, woolly; 62 g ai/ha, scale 0 to 100): 0
Plant response rating, Cupgrass, Woolly (cupgrass, woolly; 125 g ai/ha, scale 0 to 100 (0 no effect, 100 complete control)): 0
Cupgrass, Woolly plant response rating (cupgrass, woolly; 31 g ai/ha, scale 0 to 100 (0 no effect, 100 complete control)): 0
Plant response rating, Cupgrass, Woolly (cupgrass, woolly; 250 g ai/ha, scale 0 to 100 (0 no effect, 100 complete control)): 80

O=C1NCC(c2ccc(C(F)(F)F)cc2)C1C(=O)Nc1cccc(F)c1F (racemic) [Compound 202]
Plant response rating, Foxtail, Green (foxtail, green; 31 g ai/ha): 10
Plant response rating, Foxtail, Green (foxtail, green; 62 g ai/ha): 75
Plant response rating, Foxtail, Green (foxtail, green; 125 g ai/ha): 98
Plant response rating, Foxtail, Green (foxtail, green; 250 g ai/ha): 98
Plant response rating, Ragweed (ragweed; 31 g ai/ha): 20
Plant response rating, Ragweed (ragweed; 62 g ai/ha): 80
Plant response rating, Ragweed (ragweed; 125 g ai/ha): 85
Plant response rating, Ragweed (ragweed; 250 g ai/ha): 90
Plant response rating (barley, winter; Postemergence, 31 g ai/ha): 0
Plant response rating (barley, winter; Postemergence, 62 g ai/ha): 0
Plant response rating (barley, winter; Postemergence, 125 g ai/ha): 0
Plant response rating (barley, winter; Postemergence, 250 g ai/ha): 0
Plant response rating, Barley, Winter (barley, winter; Preemergence, 62 g ai/ha): 20
Plant response rating, Barley, Winter (barley, winter; Preemergence, 31 g ai/ha): 20
Plant response rating (barley, winter; Preemergence, 125 g ai/ha): 20
Plant response rating (barley, winter; Preemergence, 250 g ai/ha): 25
Plant response rating (barley, spring; Postemergence, 31 g ai/ha): 0
Plant response rating (barley, spring; Postemergence, 62 g ai/ha): 0
Plant response rating (barley, spring; Postemergence, 125 g ai/ha): 0
Plant response rating (barley, spring; Postemergence, 250 g ai/ha): 5
Plant response rating, Barley, Spring (barley, spring; Preemergence, 62 g ai/ha): 25
Plant response rating, Barley, Spring (barley, spring; Preemergence, 31 g ai/ha): 0
Plant response rating (barley, spring; Preemergence, 125 g ai/ha): 25
Plant response rating (barley, spring; Preemergence, 250 g ai/ha): 30
Plant response rating, Soybean (soybean; 31 g ai/ha): 0
Plant response rating, Soybean (soybean; 62 g ai/ha): 0
Plant response rating, Soybean (soybean; 125 g ai/ha): 0
Plant response rating, Soybean (soybean; 250 g ai/ha): 0
